Entries after “also recorded” stand apart in the source; their conditions may differ. Read-outs that look alike come from different tables or passages of the source. * marks the point of attachment. code Z = not defined here; CHN2 = [N-]=[N+]=C*
How the values were obtained:
IdeS [1] = experiment: Proteinase inhibition assay (IgG cleavage by IdeS, SDS-PAGE); format: biochemical, S. pyogenes; conditions: 30 min preincubation, IdeS 0.3 μg/ml
Experimental: Partially purified IdeS (0.3 μg/ml) was incubated with either 20 nM iodoacetic acid, Z-LVG-CHN2 (Björck et al., 1989) at 0.4 mg/ml in 1% DMSO, or E64 (40 μM). The tubes were kept in the dark and incubated for 30 min at room temperature. As controls, IdeS was also kept in phosphate buffered saline (PBS) or in 1% DMSO, the solvent for Z-LVG-CHN2. After 30 min, 5 μl of 10 mg/ml IgG (Sigma) were added, and the volume was adjusted to 100 μl with PBS. Incubation was continued for 60 min at 37° C. The reaction was stopped by the addition of SDS-PAGE sample buffer and samples were analyzed by 12% SDS-PAGE.

[2] = test system: IgG-cleaving activity of S. pyogenes strain AP1 growth medium; experiment: Cleavage of IgG in AP1 growth medium with E64 added; format: biochemical; conditions: E64 added to the AP1 growth medium, TH medium with 10% human plasma
S. pyogenes [3] = conditions: in vivo; cited from earlier work
SpeB = SpeB (Streptococcus pyogenes, UniProt P0C0J0); conditions: cited from earlier work
S. pyogenes [4] = conditions: in vitro; cited from earlier work
IdeS [5] = experiment: Inhibition of IdeS activity by IgG-binding streptococcal proteins; format: biochemical, S. pyogenes
papain = molecular target: T1, papain (Carica papaya, UniProt P00784); conditions: cited from earlier work
T1 sequence (P00784 134-345): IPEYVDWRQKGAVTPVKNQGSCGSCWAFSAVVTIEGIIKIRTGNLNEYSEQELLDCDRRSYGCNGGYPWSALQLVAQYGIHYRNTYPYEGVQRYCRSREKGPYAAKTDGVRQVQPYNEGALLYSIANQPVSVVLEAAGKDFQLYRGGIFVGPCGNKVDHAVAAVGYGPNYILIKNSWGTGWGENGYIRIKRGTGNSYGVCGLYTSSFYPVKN

| Compound | inhibition of streptococcal growth (S. pyogenes [3]) | inhibition of the proteolytic activity of SpeB (SpeB) | inhibition of streptococcal growth (S. pyogenes [4]) | also measured |
| --- | --- | --- | --- | --- |
| O=C(O)CI [iodoacetic acid] | – | – | – | inhibition of the activity of IdeS (IgG cleavage) (IdeS [1]; 20 nM iodoacetic acid): efficiently inhibited the activity of IdeS |
| CC(C)C[C@H](NC(=O)[C@H]1O[C@@H]1C(=O)O)C(=O)NCCCCN=C(N)N (relative stereo) [E64, trans-epoxysuccinyl-L-leucylamido-(4-Guanidino) butane] | only Z-LVG-CHN2 inhibited streptococcal growth | efficiently blocked; also recorded: irreversibly block the proteolytic activity of SpeB | only Z-LVG-CHN2 inhibited streptococcal growth | inhibition of the cleavage of IgG (31 kDa product) [2]: did not inhibit the cleavage of IgG; inhibition of the activity of IdeS (IgG cleavage) (IdeS [1]; E64 (40 μM)): had no effect on the enzyme; also recorded: not affected |
| protein G: streptococcal protein that binds the Cγ2-Cγ3 interphase region of IgG | – | – | – | inhibition of IdeS activity (IdeS [5]): cannot inhibit IdeS activity |
| Z-LVG-CHN2: peptide derivate based on the inhibitory reactive site of cystatin C, carrying a diazomethyl ketone group ({code Z}-Leu-Val-Gly-CHN2; reading uncertain) | inhibited streptococcal growth | irreversibly inhibit; also recorded: irreversibly block the proteolytic activity of SpeB | inhibited streptococcal growth | inhibition of the activity of IdeS (IgG cleavage) (IdeS [1]; Z-LVG-CHN2 at 0.4 mg/ml in 1% DMSO): efficiently inhibited the activity of IdeS; also recorded: is inhibited; inhibition of papain (papain): irreversibly inhibit |
